According to patent publication US9526721B2, “Tetrahydroprotoberbine compounds and uses thereof in the treatment of neurological, psychiatric and neurodegenerative diseases” (priority 2012, dated 2016):

Columns and labels:
[1] = target: T1, 5HT1A (Homo sapiens, UniProt P08908); test: Receptor binding, 5HT1A; settings: receptor expressed in CHO cells
T1 construct: host or cells: CHO cells
T1 sequence (P08908 1-422): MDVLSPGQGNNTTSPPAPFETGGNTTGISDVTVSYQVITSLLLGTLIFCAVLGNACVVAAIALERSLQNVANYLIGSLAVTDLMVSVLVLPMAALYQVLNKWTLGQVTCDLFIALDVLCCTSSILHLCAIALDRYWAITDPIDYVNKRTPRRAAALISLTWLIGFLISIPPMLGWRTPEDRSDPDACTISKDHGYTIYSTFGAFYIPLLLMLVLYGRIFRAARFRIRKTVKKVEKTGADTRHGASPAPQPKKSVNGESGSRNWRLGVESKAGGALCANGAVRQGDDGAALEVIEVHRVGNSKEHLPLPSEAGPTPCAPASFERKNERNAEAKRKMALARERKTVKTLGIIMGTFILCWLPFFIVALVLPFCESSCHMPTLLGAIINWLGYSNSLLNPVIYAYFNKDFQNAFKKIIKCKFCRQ
Procedure: (§1) All receptors tested were heterologously expressed CHO cells and IC50 values were determined by a non-linear, least squares regression analysis using MathIQ (ID Business Solution Ltd, UK). Ki was calculated using the equation of Cheng and Prusoff (1973, Biochem. Pharmacol 22:23099-3108) derived from the observed IC50 of the tested compound, the concentration of radioligand employed in the assay, and the historical values for the Kd of the ligand (obtained experimentally at MDS Pharma Services).
as §1, with “receptors” for “receptors tested”, “UK). K1” for “UK). Ki”, “calculated (Y.” for “calculated using the equation of”, “Cheng &” for “Cheng and”, “Prusoff 1973)” for “Prusoff (1973, Biochem. Pharmacol 22:23099-3108) derived”

[2] = target: T2, 5HT2A (Homo sapiens, UniProt P28223); test: Receptor binding, 5HT2A; settings: receptor expressed in CHO cells
T2 construct: host or cells: CHO cells
Procedure: as §1
as §1, with “receptors” for “receptors tested”, “UK). K1” for “UK). Ki”, “calculated (Y.” for “calculated using the equation of”, “Cheng &” for “Cheng and”, “Prusoff 1973)” for “Prusoff (1973, Biochem. Pharmacol 22:23099-3108) derived”

[3] = target: T3, 5HT3 (Homo sapiens, UniProt P46098); test: Receptor binding, 5HT3; settings: CHO cells
T3 construct: host or cells: CHO cells
T3 sequence (P46098 24-478): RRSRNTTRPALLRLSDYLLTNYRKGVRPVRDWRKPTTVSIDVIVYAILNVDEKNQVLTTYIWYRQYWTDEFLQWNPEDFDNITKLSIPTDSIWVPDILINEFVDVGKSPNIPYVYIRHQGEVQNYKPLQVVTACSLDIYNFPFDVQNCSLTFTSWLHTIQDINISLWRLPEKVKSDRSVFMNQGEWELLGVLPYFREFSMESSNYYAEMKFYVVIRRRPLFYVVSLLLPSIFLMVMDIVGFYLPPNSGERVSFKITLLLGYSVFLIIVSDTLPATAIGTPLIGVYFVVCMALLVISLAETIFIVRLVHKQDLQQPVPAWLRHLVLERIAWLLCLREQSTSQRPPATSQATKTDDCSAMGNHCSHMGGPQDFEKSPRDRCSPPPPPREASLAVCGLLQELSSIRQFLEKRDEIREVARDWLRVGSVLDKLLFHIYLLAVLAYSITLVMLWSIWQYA
Procedure: as §1

[4] = target: T4, 5HT6 (Homo sapiens, UniProt P50406); test: Receptor binding, 5HT6; settings: CHO cells
T4 construct: host or cells: CHO cells
Procedure: as §1

[5] = target: T5, D2L (Homo sapiens, UniProt P14416); test: Receptor binding, dopamine D2L; settings: for Ki: receptor expressed in CHO cells, read-out: Ki, D2L
T5 construct: host or cells: CHO cells
Procedure: as §1
as §1, with “receptors” for “receptors tested”, “UK). K1” for “UK). Ki”, “calculated (Y.” for “calculated using the equation of”, “Cheng &” for “Cheng and”, “Prusoff 1973)” for “Prusoff (1973, Biochem. Pharmacol 22:23099-3108) derived”

[6] = target: T6, D3 (Homo sapiens, UniProt P35462); test: Receptor binding, dopamine D3; settings: receptor expressed in CHO cells
T6 construct: host or cells: CHO cells
Procedure: as §1
as §1, with “receptors” for “receptors tested”, “UK). K1” for “UK). Ki”, “calculated (Y.” for “calculated using the equation of”, “Cheng &” for “Cheng and”, “Prusoff 1973)” for “Prusoff (1973, Biochem. Pharmacol 22:23099-3108) derived”

[7] = target: T7, D4.2 (Homo sapiens, UniProt P21917, DEL265-296); test: Receptor binding, dopamine D4.2; settings: CHO cells
T7 construct: host or cells: CHO cells
T7 sequence (P21917 with tags, fused parts or gaps DEL265-296): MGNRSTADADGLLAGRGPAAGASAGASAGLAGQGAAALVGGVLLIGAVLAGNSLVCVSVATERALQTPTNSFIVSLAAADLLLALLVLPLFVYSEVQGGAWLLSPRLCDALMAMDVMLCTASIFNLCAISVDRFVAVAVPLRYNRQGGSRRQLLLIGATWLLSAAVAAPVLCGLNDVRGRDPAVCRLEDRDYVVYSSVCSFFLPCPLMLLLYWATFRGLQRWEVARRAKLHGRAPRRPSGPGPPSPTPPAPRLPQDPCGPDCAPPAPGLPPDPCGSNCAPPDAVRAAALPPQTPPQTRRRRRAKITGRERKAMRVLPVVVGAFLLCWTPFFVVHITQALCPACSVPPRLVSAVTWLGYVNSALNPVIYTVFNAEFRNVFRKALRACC
Procedure: as §1

[8] = target: T8, Dopamine D1 receptors (Homo sapiens, UniProt P21728); test: Dopamine D1 receptor Adenylyl Cyclase Cellular Assay (cAMP, HTRF); assay type: cell-based; settings: for IC50: D1 antagonism, cAMP, CHO cells, read-out: IC50 of antagonistic response; for % Response Agonist: increase in cAMP relative to dopamine response; for % Response Agonist / % Response Antagonist: D1 in CHO cells; for % Response Antagonist: inhibition of dopamine-induced cAMP increase
T8 construct: host or cells: CHO cells
Excerpt: Methods employed in this Example were adapted from Liu et al (1992, Mol Endocrinol 92:1815-1824) and Zhou et al (1990, Nature 347:76-79) to maximize reliability and reproducibility. Reference standards were run as an integral part of each assay to ensure the validity of the results obtained. […] (+)-Butaclamol was used as a positive control for the assay assessing antagonism. Homogeneous fluorescence methodology HTRF homogeneous fluorescence quantitation methodology was used to measure the levels of cAMP. The criterion for significant agonist activity is ≧50% increase in cAMP relative to dopamine response. The criteria for significant antagonist activity ≧50% inhibition of dopamine-induced cAMP increase.

[9] = system: rats; test: Social interaction in NVHL and sham rats; assay type: in vivo, rat; settings: 1.0 mg/kg IP 15 minutes prior to testing
Excerpt: Experimental rats were neonatal ventral hippocampal lesioned (NVHL) and control (Sham) animals. […] The SI environment consisted of a 83×90×30 cm open field with each surface painted black.

[10] = target: D1 (Homo sapiens, UniProt P21728); test: Receptor binding, dopamine D1; set-up: host or cells: CHO cells; settings: for Ki: receptor expressed in CHO cells, read-out: Ki, D1
Procedure: as §1
as §1, with “receptors” for “receptors tested”, “UK). K1” for “UK). Ki”, “calculated (Y.” for “calculated using the equation of”, “Cheng &” for “Cheng and”, “Prusoff 1973)” for “Prusoff (1973, Biochem. Pharmacol 22:23099-3108) derived”

[11] = system: rats; test: Temporal order recognition (radial arm maze); settings: for Arm Entries / Distance Travelled: 1.0 mg/kg govadine isomers, 5.0 mg/kg clozapine; for temporal order effect: injected 15 min before test trial
Procedure: The task exploits a rat's natural preference for novel locations. Each animal received 3 separate trials where access to two arms of an eight arm radial arm maze was granted. During the first trial, two arms were selected at random for exploration, and animals were allowed to explore these arms for 2 min After this time, they were taken off the maze and returned to their home cage. 1 hour later they were placed back on the maze and two new arms were randomly selected for 2 min of exploration.
Time spent in each arm (recent and old) was recorded as well as total distance traveled and the total number of arm entries in Noldus EthoVision 3.1 (Leesburg, Va.).

T5 sequence (P14416 whole entry): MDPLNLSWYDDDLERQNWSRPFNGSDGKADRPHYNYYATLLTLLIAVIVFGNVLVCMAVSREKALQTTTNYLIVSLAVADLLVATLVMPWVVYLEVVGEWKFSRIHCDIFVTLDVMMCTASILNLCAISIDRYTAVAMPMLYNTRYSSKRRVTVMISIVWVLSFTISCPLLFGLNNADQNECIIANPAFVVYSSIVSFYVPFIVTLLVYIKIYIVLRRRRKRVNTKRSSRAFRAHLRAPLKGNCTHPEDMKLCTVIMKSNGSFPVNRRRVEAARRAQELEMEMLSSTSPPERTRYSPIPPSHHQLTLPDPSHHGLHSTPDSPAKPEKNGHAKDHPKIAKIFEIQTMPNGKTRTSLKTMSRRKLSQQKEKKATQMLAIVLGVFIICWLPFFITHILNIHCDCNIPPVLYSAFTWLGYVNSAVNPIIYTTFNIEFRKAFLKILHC
T8 sequence (P21728 whole entry): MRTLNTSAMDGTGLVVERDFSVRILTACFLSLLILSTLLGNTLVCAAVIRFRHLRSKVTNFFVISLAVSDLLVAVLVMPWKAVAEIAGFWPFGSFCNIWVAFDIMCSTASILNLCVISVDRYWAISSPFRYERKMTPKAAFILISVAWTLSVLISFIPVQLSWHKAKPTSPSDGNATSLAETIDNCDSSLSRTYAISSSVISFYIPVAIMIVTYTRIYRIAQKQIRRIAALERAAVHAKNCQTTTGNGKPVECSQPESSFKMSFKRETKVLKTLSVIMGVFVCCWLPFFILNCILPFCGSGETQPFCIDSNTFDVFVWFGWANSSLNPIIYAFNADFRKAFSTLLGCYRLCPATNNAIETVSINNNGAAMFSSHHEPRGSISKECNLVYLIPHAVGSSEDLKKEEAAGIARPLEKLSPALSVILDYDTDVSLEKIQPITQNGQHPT
Sequence of D1 (P21728 whole entry): as above
T4 sequence (P50406 whole entry, species assumed): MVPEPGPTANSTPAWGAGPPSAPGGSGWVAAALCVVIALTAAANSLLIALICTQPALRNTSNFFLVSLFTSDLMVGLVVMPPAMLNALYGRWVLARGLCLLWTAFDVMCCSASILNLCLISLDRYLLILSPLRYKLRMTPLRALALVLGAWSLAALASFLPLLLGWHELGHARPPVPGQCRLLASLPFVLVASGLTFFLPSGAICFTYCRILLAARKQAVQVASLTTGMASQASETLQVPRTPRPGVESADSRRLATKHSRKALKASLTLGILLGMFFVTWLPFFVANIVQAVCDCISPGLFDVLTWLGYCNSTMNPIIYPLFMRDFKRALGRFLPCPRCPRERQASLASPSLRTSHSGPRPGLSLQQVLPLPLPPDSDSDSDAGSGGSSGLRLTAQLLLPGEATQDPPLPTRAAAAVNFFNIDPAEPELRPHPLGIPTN
T6 sequence (P35462 whole entry): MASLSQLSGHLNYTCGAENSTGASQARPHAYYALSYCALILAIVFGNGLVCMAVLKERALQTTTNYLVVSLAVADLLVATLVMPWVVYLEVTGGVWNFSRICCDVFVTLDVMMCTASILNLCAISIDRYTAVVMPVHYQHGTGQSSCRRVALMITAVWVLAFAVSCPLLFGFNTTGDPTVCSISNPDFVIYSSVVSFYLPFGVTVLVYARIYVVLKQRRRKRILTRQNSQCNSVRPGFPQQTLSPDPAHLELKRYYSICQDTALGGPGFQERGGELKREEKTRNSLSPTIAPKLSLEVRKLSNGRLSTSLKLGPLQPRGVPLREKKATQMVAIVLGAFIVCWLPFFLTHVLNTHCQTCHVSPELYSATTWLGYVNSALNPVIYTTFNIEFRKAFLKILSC
T2 sequence (P28223 whole entry, species assumed): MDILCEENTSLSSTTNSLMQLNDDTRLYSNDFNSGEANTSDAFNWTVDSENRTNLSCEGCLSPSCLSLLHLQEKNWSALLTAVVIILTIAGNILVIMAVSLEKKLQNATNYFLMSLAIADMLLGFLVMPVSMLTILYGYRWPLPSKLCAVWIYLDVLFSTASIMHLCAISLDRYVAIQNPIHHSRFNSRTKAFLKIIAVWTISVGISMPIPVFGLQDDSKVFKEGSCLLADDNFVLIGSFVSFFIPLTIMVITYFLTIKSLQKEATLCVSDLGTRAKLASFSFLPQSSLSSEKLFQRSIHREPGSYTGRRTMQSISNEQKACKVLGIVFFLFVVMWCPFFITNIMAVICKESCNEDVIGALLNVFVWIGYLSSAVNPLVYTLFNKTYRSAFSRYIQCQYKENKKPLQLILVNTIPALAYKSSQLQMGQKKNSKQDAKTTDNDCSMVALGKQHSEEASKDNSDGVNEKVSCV

COc1cc2c(cc1O)CN1CCc3cc(OC)c(O)cc3[C@H]1C2 [d-govadine]
Ki [1]: 18200 nM | Ki [2]: 11800 nM | inhibition at 10 µM [3]: -8% | inhibition at 10 µM [4]: 9% | binding affinity to the D2 receptor [5]: weak affinity | Ki [5]: 1340 nM | Ki [6]: 606 nM | inhibition at 10 µM [7]: 20% | IC50 [8]: 2380 nM | % Response Agonist [8]: 2% | % Response Antagonist [8]: 82% | social interaction in NVHL rats versus Sham controls [9]: comparable levels of SI | binding affinity to the D1 receptor [10]: strong binding affinity | Ki [10]: 8.75 nM | Arm Entries ([11]; 45 min. delay): 14.8 ± 1.9 | Distance Travelled ([11]; 45 min. delay): 2433 ± 363 | temporal order effect ([11]; 45 min delay): abolished | temporal order effect ([11]; 4 hr delay): restored temporal order recognition | Arm Entries ([11]; 4 hr. delay): 11 ± 1.1 | Distance Travelled ([11]; 4 hr. delay): 2091 ± 114

COc1cc2c(cc1O)CN1CCc3cc(OC)c(O)cc3[C@@H]1C2 [l-govadine]
Ki [1]: 15200 nM | Ki [2]: 11100 nM | inhibition at 10 µM [3]: 5% | inhibition at 10 µM [4]: 12% | binding affinity to the D2 receptor [5]: strong affinity | Ki [5]: 165 nM | Ki [6]: 548 nM | inhibition at 10 µM [7]: 21% | IC50 [8]: 16.6 nM | % Response Agonist [8]: 2% | % Response Antagonist [8]: 87% | social interaction in NVHL rats versus Sham controls [9]: comparable levels of SI | binding affinity to the D1 receptor [10]: strong affinity | Ki [10]: 5.77 nM | Arm Entries ([11]; 45 min. delay): 3.67 ± 1.9 | Distance Travelled ([11]; 45 min. delay): 587.7 ± 109 | temporal order effect ([11]; 45 min delay): abolished | temporal order effect ([11]; 4 hr delay): no temporal order effect | Arm Entries ([11]; 4 hr. delay): 3.5 ± 0.9 | Distance Travelled ([11]; 4 hr. delay): 824 ± 135
